From a melting point compilation (Tetko et al.)

Details: a range is the spread between reports

Row | Structure (SMILES) | melting point [°C]
1 | O=C(Cl)c1cc(C(=O)Cl)cc(C(=O)Cl)c1 | 36 to 36.3
2 | Clc1cc(Cl)c(Cl)c(Cl)c1Cl | 85 to 86
3 | CCCCCCCCCCCCCCCCC | 21 to 22
4 | NC(=S)NS(=O)(=O)c1ccc(N)cc1 | 179 to 182
5 | CC(=O)Oc1ccccc1[N+](=O)[O-] | 40 to 40.5
6 | CC(CCC(=O)O)CC(=O)O (configuration not stated) | 100 to 101
7 | Nc1ccc2ncsc2c1 | 87 to 88
8 | O=C(O)Cc1cccc(O)c1 | 130 to 132
9 | N#CCc1cccc(Br)c1 | 27 to 28
10 | CC(=O)OC1CCC2(C)C(CC(=O)C3C4CCC(=O)C4(C)CCC32)C1 (configuration not stated) | 164 to 165
11 | CCOC(=O)c1ccc([N+](=O)[O-])cc1 | 57 to 58
12 | BrCCBr | 9.9 to 10
13 | COc1ccc(OC)c(C(C)=O)c1 | 19 to 20
14 | NC(=O)Oc1ccccc1 | 150 to 151
15 | Oc1c(F)c(F)c(F)c(F)c1F | 32.8 to 35
16 | c1ccc2c(c1)Cc1ccccc1-2 | 112 to 116
17 | Nc1ccncn1 | 150 to 155
18 | O=C(OC(=O)c1ccccc1)c1ccccc1 | 42 to 42.5
19 | CCSSCC | -102
20 | Nc1ccc(C(=O)O)cc1 | 188 to 189
21 | CC(C)(C)C | -17 to -16.4
22 | N#CSCSC#N | 105 to 106
23 | O=Cc1cc([N+](=O)[O-])ccc1O | 125 to 129
24 | CC(C)CCOC=O | -93.5 to -93
25 | NC(=O)c1c(Cl)cccc1Cl | 198 to 199

Row | Structure (SMILES) | melting point [°C]
26 | O=[N+]([O-])c1ccc(Nc2ccccc2)c([N+](=O)[O-])c1 | 159 to 160
27 | Nc1ccc(C2CCCCC2)cc1 | 53 to 54.5
28 | COc1cc(C=O)cc(OC)c1O | 112 to 113
29 | O=[N+]([O-])c1cccc(CCl)c1 | 45 to 47
30 | O=[N+]([O-])c1ccc(F)cc1 | 21 to 23
31 | Cc1ccc(C(=O)O)c(O)c1 | 177 to 178
32 | COc1ccc(OC)c(C=O)c1 | 49 to 52
33 | N#Cc1nn(-c2c(Cl)cc(C(F)(F)F)cc2Cl)c(N)c1S(=O)C(F)(F)F (configuration not stated) | 199 to 200
34 | CC(=O)NBr | 104
35 | C=CCCCCCCCCCCCCCCCC | 16 to 18
36 | Cc1ccc([N+](=O)[O-])cc1C | 29 to 31
37 | C1CCCCCCCCCCC1 | 59 to 61
38 | C1CCCCCCC1 | 12 to 15
39 | c1ccc2c(c1)ccc1ccccc12 | 99 to 101
40 | CCOc1ccccc1OCC | 43 to 44
41 | C=CCCCCCCCCCCCCCCCCCC | 28.5 to 29
42 | NC(=O)c1cccs1 | 181 to 182
43 | CCOCCOC(C)=O | -62 to -61
44 | O=C(C=Cc1ccccc1)OCc1ccccc1 | 35 to 39
45 | CCC(C)N (configuration not stated) | -105 to -104
46 | BrCc1ccccc1CBr | 94 to 95
47 | CC(=O)c1ccc(O)cc1O | 144 to 146
48 | c1cnc2[nH]ccc2c1 | 105 to 106
49 | O=C(O)Cc1ccc(O)cc1 | 149 to 152
50 | CC(C)C1CC1 | -113

Row | Structure (SMILES) | melting point [°C]
51 | CN(C)C(=O)Nc1ccccc1 | 132 to 134
52 | OCCCCCCO | 42 to 45
53 | COC(=O)/C=C/C(=O)OC | 102 to 104
54 | ClC1C(Cl)C(Cl)C(Cl)C(Cl)C1Cl (configuration not stated) | 159 to 160
55 | O=Nc1ccccc1 | 65 to 68.5
56 | COc1ccc(I)cc1 | 50 to 53
57 | O=C(O)CCc1ccc(O)cc1 | 129 to 131
58 | O=C1Cc2ccccc2C(=O)O1 | 142 to 143
59 | CCOCCOCCO | -80 to -76
60 | CCCC(C)(C)CC | -126
61 | CCCCP(CCCC)CCCC | -65 to -60
62 | OCC(Br)(Br)Br | 79 to 81
63 | CC(C)=O | -95 to -94
64 | O=Cc1cccc(C(=O)O)c1 | 174 to 175
65 | CC(=O)N(O)CCCCCNC(=O)CCC(=O)N(O)CCCCCNC(=O)CCC(=O)N(O)CCCCCN | 139 to 140
66 | CC(C)(C)c1ccccc1 | -59.5 to -57.8
67 | COc1cc(C=O)ccc1O | 81.5 to 82
68 | Cc1ccc(N)c(N)c1 | 88 to 89.5
69 | O=C(c1ccc(Br)cc1)c1ccc(Br)cc1 | 174 to 177
70 | CCCCCCCCCl | -58 to -57.8
71 | COC(=O)c1cc(OC)c(OC)c(OC)c1 | 83 to 85
72 | CC(=O)c1ccc(I)cc1 | 83 to 86
73 | COc1ccc(N=C=S)cc1 | 18 to 19
74 | CC(=O)Nc1ccc(C=O)cc1 | 156 to 160
75 | CCCCCCCCCCCCCCCCCCCCCCCCCCCCCC | 65.8 to 67

Row | Structure (SMILES) | melting point [°C]
76 | COc1cc(C(=O)O)cc(OC)c1O | 205 to 208
77 | CCC#CCCC | -131 to -130
78 | O=C(O)c1ccccn1 | 136 to 137
79 | NNC(=O)c1ccccc1[N+](=O)[O-] | 121 to 124
80 | O=c1cc(-c2ccccc2)oc2cc(O)cc(O)c12 | 286 to 287
81 | NC(=O)c1ccc(F)cc1 | 156
82 | CCC(C)(O)C#CC(C)(O)CC (configuration not stated) | 53 to 54
83 | OCc1ccccc1I | 91 to 92
84 | CCOc1ccccc1 | -30 to -29.5
85 | CCCCCCC(C)=O | -21 to -16
86 | CC(C)CC(C)C | -123 to -119
87 | Clc1cncc(Cl)c1 | 65 to 66
88 | c1ccc2ncccc2c1 | -15 to -14.8
89 | SCc1ccccc1 | -30 to -29
90 | Oc1ccc(Sc2ccc(O)cc2)cc1 | 153 to 155
91 | Cc1ccc(C)s1 | -63 to -62.6
92 | Cc1ccc(C#N)cc1 | 28 to 29.5
93 | CC12CCC3c4ccc(O)cc4CCC3C1CC(O)C2O (configuration not stated) | 281 to 282
94 | O=S1(=O)CCCO1 | 31.5 to 32
95 | Nc1ccccc1I | 55 to 58
96 | NCc1ccncc1 | -8 to -7.6
97 | O=[N+]([O-])c1cccc(CBr)c1 | 58 to 59.3
98 | Nc1cc([N+](=O)[O-])cc([N+](=O)[O-])c1 | 161 to 163
99 | BrC1CCCCC1 | -57 to -56.5
100 | CC(C)(C)OO | -8 to -3

Row | Structure (SMILES) | melting point [°C]
101 | N#C/C=C/C#N | 96.8 to 97
102 | N#Cc1cc(Cl)ccc1N | 96 to 97
103 | O=Cc1cccc(Cl)c1 | 17 to 18
104 | ClCc1ccccc1Cl | -17 to -13
105 | O=C(Cl)c1ccc2ccccc2c1 | 50 to 51
106 | O=C1CN(N=Cc2ccc([N+](=O)[O-])o2)C(=O)N1 | 263 to 268
107 | CCCl | -139
108 | Cc1ccc(F)cc1[N+](=O)[O-] | 26 to 27
109 | O=C1CCCC(=O)C1 | 103 to 106
110 | ClCC(Cl)CCl | -15 to -14
111 | OCc1cc(Br)ccc1O | 109 to 113
112 | c1ccc2c3c([nH]c2c1)CCCC3 | 118 to 120
113 | CC(=O)N1CCOCC1 | 10 to 14.5
114 | Fc1ccc(Br)cc1 | -17.4 to -16
115 | Cc1cc(C)c(C)c(C)c1C | 54 to 54.5
116 | Cc1ccc([N+](=O)[O-])cc1 | 51 to 54
117 | C=CCNCC=C | -88.4 to -88
118 | CCCCC(N)=O | 103 to 106
119 | CC1CCCC1(C)C (configuration not stated) | -22 to -21.6
120 | O=Cc1ccco1 | -38.1 to -36
121 | CCc1ccc(C)nc1 | -71 to -70.9
122 | CCCCCCCCCCCCCCCCCCCCCCCCCCC | 59 to 59.5
123 | O=C1c2ccccc2-c2cccc3cccc1c23 | 170 to 173
124 | CCCCCCCCCCC(=O)O | 28 to 28.6
125 | CCCCCC(C)C | -109 to -105

Row | Structure (SMILES) | melting point [°C]
126 | Nc1ccccc1Nc1ccccc1 | 79 to 79.5
127 | CCCCCCCCCCCCCCCC(=O)OCC(COC(=O)CCCCCCCCCCCCCCC)OC(=O)CCCCCCCCCCCCCCC | 62 to 66.5
128 | N#CC(Cl)(Cl)Cl | -44 to -42
129 | O=c1c(O)c(-c2ccccc2)oc2ccccc12 | 170 to 172
130 | Cc1cc(O)cc(C)c1Cl | 114 to 115
131 | Cc1cc2nc[nH]c2cc1C | 204 to 206
132 | CCCCCCI | -75 to -74.2
133 | N#CCc1ccccc1Cl | 23 to 24
134 | Nc1ccc(N)c2c1C(=O)c1ccccc1C2=O | 263 to 268
135 | CN(C)c1ccc(C(=O)c2ccccc2)cc1 | 89 to 92.5
136 | ClCc1ccccc1CCl | 55 to 56
137 | NCCCNCCCCNCCCN | 28 to 29
138 | O=Cc1ccc2ccccc2n1 | 68 to 71
139 | C1CCC1 | -91 to -90.6
140 | c1ccc2nc(-c3ccc4ccccc4n3)ccc2c1 | 194 to 195
141 | O=C1c2ccccc2C(=O)c2c(Cl)cccc21 | 159 to 163
142 | C=Cc1cccc(C)c1 | -86.3 to -82
143 | Nc1ccc2c(c1)CCC2 | 35 to 37.5
144 | CN=C=S | 32 to 36
145 | COc1ccccc1OC(=O)Oc1ccccc1OC | 87 to 89
146 | CC(C)(C)c1ccc(C(O)CCCN2CCC(C(O)(c3ccccc3)c3ccccc3)CC2)cc1 (configuration not stated) | 147 to 148
147 | Cc1ccc(Br)cc1 | 25 to 28.5
148 | CCC(=O)CC | -40 to -39
149 | Cc1c(C(=O)O)cnn1-c1ccccc1 | 167 to 168
150 | Ic1cccc(I)c1 | 36 to 40.4

Row | Structure (SMILES) | melting point [°C]
151 | C#C | -80.8 to -80.7
152 | O=C(Oc1cccc(O)c1)c1ccccc1 | 132 to 134
153 | Nc1cccc(Cl)c1Cl | 22 to 24
154 | C=CCC(C)C | -154 to -153
155 | O=C(c1ccc(Cl)cc1)c1ccccc1Cl | 65 to 67
156 | COc1ccc(CC(=O)O)cc1OC | 97 to 98
157 | COc1ccc(C(=O)O)cc1 | 184 to 185
158 | Cc1cc(N)ccc1Cl | 83.5 to 84
159 | CCC1CCCCC1 | -111
160 | CC(=O)OCCCCOC(C)=O | 12 to 13
161 | O=[N+]([O-])c1cccc(-c2ccccc2)c1 | 59 to 62
162 | CC(C)CCCC(C)C | -103
163 | Cc1cc(C)cc(O)c1 | 62.5 to 65.5
164 | O=C(O)c1cccnc1 | 237 to 238
165 | Cc1ccco1 | -89 to -87.5
166 | c1ccc(OCCOc2ccccc2)cc1 | 95 to 98
167 | CCCCC=O | -92 to -91
168 | C=CC(C)(C)CC | -134
169 | CCCCCCOC(C)=O | -80.9 to -80
170 | CC(C)(C)Br | -20 to -16
171 | CC(=O)c1cccc(N)c1 | 96 to 98.5
172 | CC#CCC(C)C | -93 to -92.9
